Measured values reported in US8772505B2, “Antiviral compounds composed of three aligned aryl moieties to treat diseases such as hepatitis C” (Merck Sharp & Dohme Corp., priority 2009, dated 2014).

Tested on: HCV replicon genotype 1a 1A7
Assay: HCV replicon assay, genotype 1a 1A7
Type: cell-based
Details: Hepatitis C virus
Protocol: (§1) To measure cell-based anti-HCV activity of selected compounds of the present invention, replicon cells were seeded at 5000 cells/well in 96-well collagen I-coated Nunc plates in the presence of the test compound. Various concentrations of test compound, typically in 10 serial 2-fold dilutions, were added to the assay mixture, with the starting concentration ranging from 250 μM to 1 μM. The final concentration of DMSO was 0.5%, fetal bovine serum was 5%, in the assay media. Cells were harvested on day 3 by the addition of 1× cell lysis buffer (Ambion cat #8721). The replicon RNA level was measured using real time PCR (Taqman assay). The amplicon was located in 5B. The PCR primers were: 5B.2F, ATGGACAGGCGCCCTGA (SEQ. ID NO. 1); 5B.2R, […] (SEQ. ID NO. 2); the probe sequence was FAM-labeled CACGCCATGCGCTGCGG (SEQ. ID NO. 3). GAPDH RNA was used as endogenous control and was amplified in the same reaction as NS5B (multiplex PCR) using primers and VIC-labeled probe recommended by the manufacturer (PE Applied Biosystem). […] Alternatively, to quantitate the absolute amount of replicon RNA, a standard curve was established by including serially diluted T7 transcripts of replicon RNA in the Taqman assay. […]

| Structure (SMILES) | EC50 |
| --- | --- |
| COC(=O)N[C@H](C(=O)N1CCC[C@H]1c1nc2ccc(-c3ccc(-c4ccc5nc([C@@H]6CCCN6C(=O)[C@@H](NC(=O)OC)C(C)C)[nH]c5c4)c(OC(F)(F)F)c3)cc2[nH]1)C(C)C [Compound 129] | 0.05 nM |

Tested on: HCV replicon
Assay: Cell-based HCV replicon assay (EC90)
Details: Hepatitis C virus, 72 h; replicon RNA by real time PCR (Taqman), day 3; class symbols; read-out: Biological Activity (EC90, HCV replicon)
Protocol: To measure cell-based anti-HCV activity of selected compounds of the present invention, replicon cells were seeded at 5000 cells/well in 96-well collagen I-coated Nunc plates in the presence of the test compound. Various concentrations of test compound, typically in 10 serial 2-fold dilutions, were added to the assay mixture, with the starting concentration ranging from 250 μM to 1 μM. The final concentration of DMSO was 0.5%, fetal bovine serum was 5%, in the assay media. Cells were harvested on day 3 by the addition of 1× cell lysis buffer (Ambion cat #8721). The replicon RNA level was measured using real time PCR (Taqman assay). The amplicon was located in 5B. The PCR primers were: 5B.2F, ATGGACAGGCGCCCTGA (SEQ. ID NO. 1); 5B.2R, […] (SEQ. ID NO. 2); the probe sequence was FAM-labeled CACGCCATGCGCTGCGG (SEQ. ID NO. 3). GAPDH RNA was used as endogenous control and was amplified in the same reaction as NS5B (multiplex PCR) using primers and VIC-labeled probe recommended by the manufacturer (PE Applied Biosystem). The real-time RT-PCR reactions were run on ABI PRISM 7900HT Sequence Detection System using the following program: 48° C. for 30 min, 95° C. for 10 min, 40 cycles of 95° C. for 15 sec, 60° C. for 1 min. The ACT values (CT5B-CTGAPDH) were plotted against the concentration of test compound and fitted to the sigmoid dose-response model using XLfit4 (MDL). EC50 was defined as the concentration of inhibitor necessary to achieve ΔCT=1 over the projected baseline; EC90 the concentration necessary to achieve ΔCT=3.2 over the baseline. Alternatively, to quantitate the absolute amount of replicon RNA, a standard curve was established by including serially diluted T7 transcripts of replicon RNA in the Taqman assay. All Taqman reagents were from PE Applied Biosystems. Such an assay procedure was described in detail in e.g. Malcolm et al., Antimicrobial Agents and Chemotherapy 50: 1013-1020 (2006).
HCV replicon assay data was calculated for selected compounds of the present invention using this method.

| Structure (SMILES) | EC90 |
| --- | --- |
| COC(=O)N[C@H](C(=O)N1CCC[C@H]1c1nc2ccc(-c3ccc(-c4ccc5nc([C@@H]6CCCN6C(=O)[C@@H](NC(=O)OC)C(C)C)[nH]c5c4)c4c3ccn4C)cc2[nH]1)C(C)C [Compound 133] | < 1 nM |
| COC(=O)N[C@H](C(=O)N1CCC[C@H]1c1nc2ccc(-c3cc(-c4ccccc4)c(-c4ccc5nc([C@@H]6CCCN6C(=O)[C@@H](NC(=O)OC)C(C)C)[nH]c5c4)s3)cc2[nH]1)C(C)C [Compound 128] | < 1 nM |
| COC(=O)N[C@H](C(=O)N1CCC[C@H]1c1nc2cc(F)c(-c3cc(C)c(-c4cc5[nH]c([C@@H]6CCCN6C(=O)[C@@H](NC(=O)OC)C(C)C)nc5cc4F)s3)cc2[nH]1)C(C)C [Compound 119] | < 1 nM |
| COC(=O)N[C@H](C(=O)N1CCC[C@H]1c1nc2ccc(-c3ccc(-c4ccc5nc([C@@H]6CCCN6C(=O)[C@@H](NC(=O)OC)C(C)C)[nH]c5c4)c(OC(F)(F)F)c3)cc2[nH]1)C(C)C [Compound 129] | < 1 nM |
| CCCCc1cc(-c2ccc3nc([C@@H]4CCCN4C(=O)[C@@H](NC(=O)OC)C(C)C)[nH]c3c2)sc1-c1ccc2nc([C@@H]3CCCN3C(=O)[C@@H](NC(=O)OC)C(C)C)[nH]c2c1 [Compound 121] | < 1 nM |
| c1cc(-c2ccc3nc([C@@H]4CCCN4)[nH]c3c2)ncc1-c1ccc2nc([C@@H]3CCCN3)[nH]c2c1 [Compound 43] | > 1000 nM |
| COC(=O)N[C@H](C(=O)N1CCC[C@H]1c1nc2ccc(-c3cnc(-c4ccc5nc([C@@H]6CCCN6C(=O)[C@@H](NC(=O)OC)C(C)C)[nH]c5c4)cn3)cc2[nH]1)C(C)C [Compound 64] | < 1 nM |
| [2H]C([2H])([2H])C([2H])(C([2H])([2H])[2H])[C@]([2H])(NC(=O)OC)C(=O)N1CCC[C@H]1c1nc2ccc(-c3ccc(-c4ccc5nc([C@@H]6CCCN6C(=O)[C@@]([2H])(NC(=O)OC)C([2H])(C([2H])([2H])[2H])C([2H])([2H])[2H])[nH]c5c4)c(OC(F)(F)F)c3)cc2[nH]1 [Compound 134] | < 1 nM |
| [2H]C([2H])([2H])C([2H])(C([2H])([2H])[2H])[C@]([2H])(NC(=O)OC)C(=O)N1C([2H])([2H])C([2H])([2H])C([2H])([2H])[C@]1([2H])c1nc2ccc(-c3ccc(-c4ccc5nc([C@]6([2H])N(C(=O)[C@@]([2H])(NC(=O)OC)C([2H])(C([2H])([2H])[2H])C([2H])([2H])[2H])C([2H])([2H])C([2H])([2H])C6([2H])[2H])[nH]c5c4)c(OC(F)(F)F)c3)cc2[nH]1 [Compound 135] | < 1 nM |
| COC(=O)N[C@H](C(=O)N1CCC[C@H]1c1nc2ccc(-c3ccc(-c4ccc5nc([C@@H]6CCCN6C(=O)[C@@H](NC(=O)OC)C(C)C)[nH]c5c4)nc3)cc2[nH]1)C(C)C [Compound 44] | < 1 nM |
| COC(=O)N[C@H](C(=O)N1CCC[C@H]1c1nc2ccc(-c3ccc(-c4ccc5nc([C@@H]6CCCN6C(=O)[C@@H](NC(=O)OC)C(C)C)[nH]c5c4)c4ccccc34)cc2[nH]1)C(C)C [Compound 59] | < 1 nM |
| CC(=O)N1CCC[C@H]1c1nc2ccc(-c3ccc(-c4ccc5nc([C@@H]6CCCN6C(C)=O)[nH]c5c4)nc3)cc2[nH]1 [Compound 42] | > 1000 nM |
| COC(=O)N[C@H](C(=O)N1CCC[C@H]1c1nc2ccc(-c3ccc(-c4ccc5nc([C@@H]6CCCN6C(=O)[C@@H](NC(=O)OC)C(C)C)[nH]c5c4)s3)cc2[nH]1)C(C)C [Compound 55] | < 1 nM |

Same assay, conditions: Hepatitis C virus, 72 h; replicon RNA by real time PCR (Taqman), day 3; numeric, unit inferred; read-out: Biological Activity (EC90, HCV replicon)

| Structure (SMILES) | EC90 |
| --- | --- |
| COC(=O)N[C@H](C(=O)N1CCC[C@H]1c1nc2ccc(-c3cc(C)c(-c4ccc5nc([C@@H]6CCCN6C(=O)[C@@H](NC(=O)OC)C(C)C)[nH]c5c4)s3)cc2[nH]1)C(C)C [Compound 103] | 0.005 nM |
| C#CC[C@@H](NC(=O)OC)C(=O)N1CCC[C@H]1c1nc2ccc(-c3ccc(-c4ccc5nc([C@@H]6CCCN6C(=O)[C@@H](CC#C)NC(=O)OC)[nH]c5c4)s3)cc2[nH]1 [Compound 99] | 0.2 nM |
| COC(=O)N[C@H](C(=O)N1CCC[C@H]1c1nc2cc(F)c(-c3ccc(-c4cc5[nH]c([C@@H]6CCCN6C(=O)[C@@H](NC(=O)OC)C(C)C)nc5cc4F)s3)cc2[nH]1)C(C)C [Compound 115] | 0.003 nM |

Same assay, conditions: Hepatitis C virus, 72 h; replicon RNA by real time PCR (Taqman), day 3; numeric; read-out: Biological Activity (EC90, HCV replicon)

| Structure (SMILES) | EC90 |
| --- | --- |
| CCCCc1cc(-c2ccc3nc([C@@H]4CCCN4)[nH]c3c2)sc1-c1ccc2nc([C@@H]3CCCN3)[nH]c2c1 [Compound 72] | 26 nM |
| COC(=O)N[C@H](C(=O)N1CCC[C@H]1c1ncc(-c2ccc(-c3ccc4nc([C@@H]5CCCN5C(=O)[C@@H](NC(=O)OC)C(C)C)[nH]c4c3)[nH]c2=O)[nH]1)C(C)C [Compound 91] | 6 nM |

Tested on: HCV replicon genotype 1b c16
Assay: HCV replicon assay, genotype 1b c16
Type: cell-based
Details: Hepatitis C virus
Protocol: as §1

| Structure (SMILES) | EC50 |
| --- | --- |
| COC(=O)N[C@H](C(=O)N1CCC[C@H]1c1nc2ccc(-c3ccc(-c4ccc5nc([C@@H]6CCCN6C(=O)[C@@H](NC(=O)OC)C(C)C)[nH]c5c4)c(OC(F)(F)F)c3)cc2[nH]1)C(C)C [Compound 129] | 3 pM |
